Columns and labels:
Format in all cases: cell-based
[1] = tested on: human dermal fibroblasts from Parkinson's disease patients; assay: Rescue of BSO-stressed fibroblasts from Parkinson's disease patients; details: Fibroblast, PD fibroblasts AG20439, BSO stress, read-out: protection against PD, EC50
Procedure: (§1) An initial screen was performed to identify compounds effective for the amelioration of redox disorders. Test samples, 4 reference compounds (Idebenone, decylubiquinone, Trolox and α-tocopherol acetate), and solvent controls were tested for their ability to rescue FRDA fibroblasts stressed by addition of L-buthionine-(S,R)-sulfoximine (BSO), as described in Jauslin et al., Hum. Mol. Genet. 11(24):3055 (2002), Jauslin et al., FASEB J. 17:1972-4 (2003), and International Patent Application WO 2004/003565. […] This specific BSO-mediated cell death can be prevented by administration of antioxidants or molecules involved in the antioxidant pathway, such as α-tocopherol, selenium, or small molecule glutathione peroxidase mimetics. However, antioxidants differ in their potency, i.e. the concentration at which they are able to rescue BSO-stressed FRDA fibroblasts.
(§2) Test samples were screened according to the following protocol: A culture with FRDA fibroblasts was started from a 1 ml vial with approximately 500,000 cells stored in liquid nitrogen. Cells were propagated in 10 cm cell culture dishes by splitting every third day in a ratio of 1:3 until nine plates were available. Once confluent, fibroblasts were harvested. For 54 micro titer plates (96 well-MTP) a total of 14.3 million cells (passage eight) were re-suspended in 480 ml medium, corresponding to 100 μl medium with 3,000 cells/well. The remaining cells were distributed in 10 cm cell culture plates (500,000 cells/plate) for propagation. The plates were incubated overnight at 37° C. in a atmosphere with 95% humidity and 5% CO2 to allow attachment of the cells to the culture plate.
(§3) MTP medium (243 μl) was added to a well of the microtiter plate. The test compounds were unfrozen, and 7.5 μl of a 5 mM stock solution was dissolved in the well containing 243 μl medium, resulting in a 150 μM master solution. Serial dilutions from the master solution were made. The period between the single dilution steps was kept as short as possible (generally less than 1 second).
(§4) Plates were kept overnight in the cell culture incubator. The next day, 10 μl of a 10 mM BSO solution were added to the wells, resulting in a 1 mM final BSO concentration. Forty-eight hours later, three plates were examined under a phase-contrast microscope to verify that the cells in the 0% control (wells E1-H1) were clearly dead. The medium from all plates was discarded, and the remaining liquid was removed by gently tapping the plate inversed onto a paper towel.
(§5) 100 μl of PBS containing 1.2 μM Calcein AM were then added to each well. The plates were incubated for 50-70 minutes at room temperature. After that time the PBS was discarded, the plate gently tapped on a paper towel and fluorescence (excitation/emission wavelengths of 485 nm and 525 nm, respectively) was read on a Gemini fluorescence reader. Data was imported into Microsoft Excel (EXCEL is a registered trademark of Microsoft Corporation for a spreadsheet program) and used to calculate the EC50 concentration for each compound.
(§6) Compounds of the invention were screened as described in Example A, but substituting FRDA cells with Parkinson's Disease (PD) cells obtained from the Coriell Cell Repositories (Camden, N.J.; repository number AG20439). The compounds were tested for their ability to rescue human dermal fibroblasts from Parkinson's disease patients from oxidative stress.

[2] = tested on: human dermal fibroblasts from LHON patients; assay: Rescue of BSO-stressed fibroblasts from LHON patients; details: Fibroblast, LHON fibroblasts GM03858, BSO stress, read-out: protection against LHON, EC50
Procedure: as §1, §2, §3, §4, §5
as §6, with “Leber's Hereditary Optic Neuropathy (LHON)” for “Parkinson's Disease (PD)”, “GM03858).” for “AG20439).”, “LHON” for “Parkinson's disease”

[3] = tested on: human dermal fibroblasts from Huntington's patients; assay: Rescue of BSO-stressed fibroblasts from Huntington's patients; details: Fibroblast, Huntington's fibroblasts GM 04281, BSO stress, read-out: protection against Huntington's, EC50
Procedure: as §1, §2, §3, §4, §5
as §6, with “tested using the screen” for “screened”, “Huntington's” for “Parkinson's Disease (PD)”, “GM 04281).” for “AG20439).”, “Huntington's” for “Parkinson's disease”

[4] = tested on: Human dermal fibroblasts from Friedreich's Ataxia patients; assay: Rescue of BSO-stressed FRDA fibroblasts (Calcein AM viability); details: FRDA fibroblasts GM04078, BSO stress, read-out: protection against FRDA, EC50
Procedure: as §1
MEM (a medium enriched in amino acids and vitamins, catalog no. 1-31F24-I) and Medium 199 (M199, catalog no. 1-21F22-I) with Earle's Balanced Salts, without phenol red, were purchased from Bioconcept. Fetal Calf Serum was obtained from PAA Laboratories. Basic fibroblast growth factor and epidermal growth factor were purchased from PeproTech. Penicillin-streptomycin-glutamine mix, L-buthionine (S,R)-sulfoximine, (+)-α-tocopherol acetate, decylubiquinone, and insulin from bovine pancreas were purchased from Sigma. Trolox (6-hydroxy-2,5,7,8-tetramethylchromane-2-carboxylic acid) was obtained from Fluka. Idebenone was obtained from Chemo Iberica. Calcein AM was purchased from Molecular Probes. Cell culture medium was made by combining 125 ml M 199 EBS, 50 ml Fetal Calf Serum, 100 U/ml penicillin, 100 μg/ml streptomycin, 2 mM glutamine, 10 μg/ml insulin, 10 ng/ml EGF, and 10 ng/ml bFGF; MEM EBS was added to make the volume up to 500 ml. A 10 mM BSO solution was prepared by dissolving 444 mg BSO in 200 ml of medium with subsequent filter-sterilization. During the course of the experiments, this solution was stored at +4° C. The cells were obtained from the Coriell Cell Repositories (Camden, N.J.; repository number GM04078) and grown in 10 cm tissue culture plates. Every third day, they were split at a 1:3 ratio.
The test samples were supplied in 1.5 ml glass vials. The compounds were diluted with DMSO, ethanol or PBS to result in a 5 mM stock solution. Once dissolved, they were stored at −20° C. Reference antioxidants (Idebenone, decylubiquinone, α-tocopherol acetate and trolox) were dissolved in DMSO.
as §2, §3
as §4, with “The medium from all plates was discarded, and the remaining liquid was removed by gently tapping the plate inversed onto a paper towel.” left out

Measured: EC50

CC1=C(C)C(=O)C(c2ccc3ccccc3c2)=C(CCC(C)(C)O)C1=O [Example 13, 2-(3-Hydroxy-3-methylbutyl)-5,6-dimethyl-3-(naphthalen-2-yl)cyclohexa-2,5-diene-1,4-dione]
< 200 nM: all assays above

CC1=C(C)C(=O)C(c2ccc(Cl)cc2)=C(CCC(C)(C)O)C1=O [Example 15, 2-(4-Chlorophenyl)-3-(3-hydroxy-3-methylbutyl)-5,6-dimethylcyclohexa-2,5-diene-1,4-dione]
< 200 nM: all assays above

CCc1ccc(C2=C(CCC(C)(C)O)C(=O)C(C)=C(C)C2=O)cc1 [Example 16, 2-(4-Ethylphenyl)-3-(3-hydroxy-3-methylbutyl)-5,6-dimethylcyclohexa-2,5-diene-1,4-dione]
< 200 nM: all assays above

CC1=C(C)C(=O)C(c2cccc(C(F)(F)F)c2)=C(CCC(C)(C)O)C1=O [Example 17, 2-(3-Hydroxy-3-methylbutyl)-5,6-dimethyl-3-(3-(trifluoromethyl)phenyl)cyclohexa-2,5-diene-1,4-dione]
< 200 nM: all assays above

CC1=C(C)C(=O)C(c2ccc(C(C)(C)C)cc2)=C(CCC(C)(C)O)C1=O [Example 18, 2-(4-tert-Butylphenyl)-3-(3-hydroxy-3-methylbutyl)-5,6-dimethylcyclohexa-2,5-diene-1,4-dione]
< 200 nM: all assays above

CC1=C(C)C(=O)C(c2cccc(F)c2)=C(CCC(C)(C)O)C1=O [Example 20, 2-(3-Fluorophenyl)-3-(3-hydroxy-3-methylbutyl)-5,6-dimethylcyclohexa-2,5-diene-1,4-dione]
< 200 nM: all assays above

CC1=C(C)C(=O)C(CCC(C)(C)O)=C(CCCc2ccccc2)C1=O [Example 24, 2-(3-Hydroxy-3-methylbutyl)-5,6-dimethyl-3-(3-phenylpropyl)cyclohexa-2,5-diene-1,4-dione]
< 200 nM: all assays above
